{
  "source": "patent US8198317B2",
  "about": "“Methylenedioxy phenolic compounds and their use to treat disease” (The Ohio State University Research Foundation, priority 2008, dated 2012)",
  "key": {"[1]": {"test_system": "Watanabe Heritable Hyperlipidemic Rabbits (WHHL)", "assay": "Western blot of VCAM-1 and ICAM-1 in WHHL rabbit aorta", "assay_type": "in vivo", "protocol": "Samples were homogenized and solubilized in radioimmunoprecipitation assay buffer (50 mM Tris-HCl, pH 7.4, 150 mM NaCl, 1 mM EDTA, 1 mM NaF, 1 mM Na3VO4) and 1 mM phenylmethylsulfonyl fluoride, with 0.25% sodiumdeoxycholate and 1.0% Nonidet P-40) and centrifuged at 10,000 g and 4° C. for 30 min. The supernatant was collected and subjected to Western blot analysis. In brief, 40 μg of protein was separated by SDS-polyacrylamide gel electrophoresis and subsequently transferred to nitrocellulose membrane. The membrane was then incubated with: monoclonal anti-β-actin (Sigma, St. Louis, Mo.), monoclonal anti-VCAM (R&D Systems, Minneapolis, Minn.), monoclonal anti-ICAM (R&D Systems, Minneapolis, Minn.), monoclonal anti-phospho-eNOS(pS 1177) (BD Biosciences, Billerica, Mass.), rabbit anti-eNOS (Santa Cruz Biotechnology, Santa Cruz, Calif.), rabbit anti-phospho-Akt (Thr308) (Cell Signaling Technology, Danvers, Mass.), goat anti-Akt (Santa Cruz Biotechnology, Santa Cruz, Calif.), and rabbit anti-p65 (Cell Signaling Technology, Danvers, Mass.). Finally, the membranes were incubated with a horseradish peroxidase-linked secondary antibody and visualized with an enhanced chemiluminescence kit (Amersham Biosciences Inc., Piscataway, N.J.). Band density was quantified by densitometric analysis using ImageJ."}, "[2]": {"test_system": "thoracic aorta of New Zealand White rabbits", "assay": "Myograph experiments on thoracic aortic rings of NZW rabbits", "assay_type": "in vivo, rabbit", "protocol": "Animal Model: 15 male New Zealand White rabbits (Charles River, Mass.) were fed with high fat diet (HFD) (Harlan Teklad rabbit diet with 0.5% cholesterol, TD 87251). After 4 weeks of high fat diet, rabbits were randomized into three different treatment groups, normal control (n=5), lipoic acid (100 mg/kg/day) (n=5), INV 70-65 (100 mg/kg/day) (n=5). These drugs were administered to the animals via their chow by mixing the drugs with the high fat diet. A fixed amount of chow and drugs admixed in the chow were fed to all animals every day after carefully calculating food intake in each rabbit. Drugs were dissolved in 100% ethanol and sprayed onto the diet and kept under vacuum to let ethanol evaporate overnight. Two (2) weeks after drug or control admixed HFD, all rabbits underwent aortic balloon denudation surgeries followed by 12 weeks of continued administration of drug or controls admixed with HFD. FIG. 29 provides an outline of the experimental design.\nRabbits were euthanized by injection of lethal doses of pentobarbital. The thoracic aortas were collected for the myograph studies. Two (2) mm thoracic aortic rings were suspended in individual organ chambers filled with physiological salt solution buffer (sodium chloride, 130 mEq/L; potassium chloride, 4.7 mEq/L; calcium dichloride, 1.6 mEq/L; magnesium sulfate, 1.17 mEq/L; potassium diphosphate, 1.18 mEq/L; sodium bicarbonate, 14.9 mEq/L; EDTA, 0.026 mEq/L; and glucose, 99.1 mg/dL [5.5 mmol/L]; pH, 7.4), aerated continuously with 5% carbon dioxide in oxygen at 37° C. Vessels were allowed to equilibrate for at least 1 hour at a resting tension of 30 mN before being subjected to graded doses of agonists. The vasoconstrictor agonist phenylephrine (PE) was used and responses were expressed as a percentage of the peak response to 120 mEq/L of potassium chloride. The vessels subjected to PE were washed thoroughly and allowed to equilibrate for 1 hour before beginning experiments with acetylcholine or sodium nitroprusside (SNP). […] Results for the vasodilators were expressed as a percentage of pre-contraction by PE (0.1 μM)."}, "[3]": {"settings": "NZW thoracic aorta, end of 12 weeks"}, "[4]": {"settings": "NZW thoracic aorta, end of 12 weeks, % of pre-contraction by PE"}},
  "data": [
    {"smiles": "CC(=O)Oc1cc2c(cc1[N+](=O)[O-])OCO2", "note": "[INV-75, 3,4-methylenedioxy-6-nitrophenyl acetate]", "values": [
      {"measurement": "protein expression of ICAM-1", "setting": "[1]", "result": "markedly reduced"},
      {"measurement": "protein expression of VCAM-1", "setting": "[1]", "result": "markedly reduced"}
    ]},
    {"smiles": "O=C(CCCCC1CCSS1)Oc1ccc2c(c1)OCO2", "note": "(stereo not shown) [INV-7065, 3,4-Methylenedioxy phenyl lipoate]", "values": [
      {"measurement": "Ach LogEC50", "setting": "[2]; [3]", "result": "−6.67 ± 0.16", "unit": "M"},
      {"measurement": "PE LogEC50", "setting": "[2]; [3]", "result": "−6.28 ± 0.08", "unit": "M"},
      {"measurement": "SNP-1 LogEC50", "setting": "[2]; [3]", "result": "−7.09 ± 0.16", "unit": "M"},
      {"measurement": "PE Maximum Effect", "setting": "[2]; NZW thoracic aorta, end of 12 weeks, % of peak response to KCl", "result": "109.1 ± 4.78", "unit": "%"},
      {"measurement": "Ach Maximum Effect", "setting": "[2]; [4]", "result": "−29.84 ± 2.09", "unit": "%"},
      {"measurement": "Insulin Maximum Effect", "setting": "[2]; [4]", "result": "−132.5 ± 14.59", "unit": "%"},
      {"measurement": "SNP-1 Maximum Effect", "setting": "[2]; [4]", "result": "−83.06 ± 4.95", "unit": "%"},
      {"measurement": "effect on Insulin EC50 doses", "setting": "[2]; NZW, in words", "result": "no effect"},
      {"measurement": "improving response to acetylcholine when compared to control", "setting": "[2]; NZW, in words", "result": "no different than lipoic acid"},
      {"measurement": "relaxation to peak doses of Insulin compared to lipoic acid", "setting": "[2]; NZW, in words", "result": "improved"},
      {"measurement": "vascular contractility to alpha receptor agonist", "setting": "[2]; NZW, in words", "result": "decreases"}
    ]}
  ]
}
